What follows are molecules tested against KDR kinase (Homo sapiens, UniProt P35968) (assay: KDR kinase inhibition assay (LanthaScreen TR-FRET)). Conditions: not given.
Format: biochemical
Experimental: KDR Kinase Inhibition Assay
LanthaScreen™ is the detection of Time-Resolved Fluorescence Resonance Energy Transfer (TR-FRET) using lanthanide chelates to measure interactions between various binding partners. The application of TR-FRET to assay kinase activity was first described by Mathis (1995). A TR-FRET assay was used to measure KDR kinase inhibitory activity. The assay panel was run on a Biomek FX liquid handling workstations. To the assay plates containing 50 nL compound or control solutions, 4.5 μL of buffer A (50 mM TRIS-HCl pH 7.4, 2 mM DTT, 0.02% Tween 20, 0.02 mM Na3VO4, H2O nanpure) including a generic concentration of ATP (2 μM f.c.) was added per well, followed by 4.5 μL of buffer B (4 uM ATP in Buffer A) including a generic concentration of polyEAY (50 nM f.c.), KDR kinase, and divalent cations. Final concentration of kinase and cations were: [KDR kinase]=0.38 nM, [Mg]=10 mM, [Ca]=1 mM. After 1 hour of incubation the kinase reactions were stopped by the addition of 4.5 μL of stop solution D (50 mM EDTA, 20 mM TRIS-HCl pH 7.4, 0.04% NP-40) immediately followed by 4.5 μL of buffer A (50 mM TRIS-HCl pH 7.4, 2 mM DTT, 0.02% Tween 20, 0.02 mM Na3VO4, H2O nanpure) including the Tb-labeled P-20 antibody to give a total detection volume of 18 μL. After an incubation time of 45 min in the dark, the plates were transferred into the Pherastar fluorescence reader for counting. The effect of compound on the enzymatic activity was obtained from the linear progress curves and determined from one reading (end point measurement).

KDR kinase, sequence (P35968 20-1356): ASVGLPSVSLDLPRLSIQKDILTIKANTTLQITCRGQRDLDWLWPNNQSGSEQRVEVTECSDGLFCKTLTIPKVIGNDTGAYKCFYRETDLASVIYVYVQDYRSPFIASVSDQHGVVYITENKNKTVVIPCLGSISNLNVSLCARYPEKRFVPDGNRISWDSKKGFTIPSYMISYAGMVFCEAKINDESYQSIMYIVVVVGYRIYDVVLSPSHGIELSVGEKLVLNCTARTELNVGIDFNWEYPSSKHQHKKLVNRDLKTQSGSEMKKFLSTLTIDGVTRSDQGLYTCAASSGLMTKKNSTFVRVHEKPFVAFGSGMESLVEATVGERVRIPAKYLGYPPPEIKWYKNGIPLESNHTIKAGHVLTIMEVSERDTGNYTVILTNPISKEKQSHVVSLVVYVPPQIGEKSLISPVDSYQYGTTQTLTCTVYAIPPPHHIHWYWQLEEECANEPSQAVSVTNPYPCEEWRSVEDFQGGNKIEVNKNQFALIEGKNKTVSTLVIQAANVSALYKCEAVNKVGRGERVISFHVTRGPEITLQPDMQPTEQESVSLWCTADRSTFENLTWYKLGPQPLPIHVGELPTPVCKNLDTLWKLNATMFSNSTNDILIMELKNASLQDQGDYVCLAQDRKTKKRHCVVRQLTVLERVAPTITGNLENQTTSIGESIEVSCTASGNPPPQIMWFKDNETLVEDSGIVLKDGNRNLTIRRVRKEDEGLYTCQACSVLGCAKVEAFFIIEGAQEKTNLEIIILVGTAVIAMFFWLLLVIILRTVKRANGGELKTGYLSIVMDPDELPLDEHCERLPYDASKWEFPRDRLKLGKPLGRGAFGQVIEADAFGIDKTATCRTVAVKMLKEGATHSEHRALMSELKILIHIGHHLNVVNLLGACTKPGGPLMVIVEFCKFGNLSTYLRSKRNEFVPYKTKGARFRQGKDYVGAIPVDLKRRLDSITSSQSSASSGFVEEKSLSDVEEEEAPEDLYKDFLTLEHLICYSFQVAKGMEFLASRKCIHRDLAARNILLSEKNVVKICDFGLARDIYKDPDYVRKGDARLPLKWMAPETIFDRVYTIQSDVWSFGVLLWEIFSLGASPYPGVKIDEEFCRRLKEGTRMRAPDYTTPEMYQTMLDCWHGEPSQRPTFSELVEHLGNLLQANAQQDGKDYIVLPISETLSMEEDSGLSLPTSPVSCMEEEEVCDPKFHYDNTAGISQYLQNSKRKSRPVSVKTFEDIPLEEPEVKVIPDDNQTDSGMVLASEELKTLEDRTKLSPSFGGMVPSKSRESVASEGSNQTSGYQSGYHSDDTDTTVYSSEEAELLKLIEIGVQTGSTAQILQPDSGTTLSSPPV

SMILES	IC50 [nM]
C[C@H]1O[C@@H](c2ccncc2NC(=O)c2nc(-c3ccccc3)cnc2N)[C@H](F)[C@@H](O)[C@]1(C)O [Example 58, 3-amino-N-(4-((2S,3R,4S,5S,6R)-3-fluoro-4,5-dihydroxy-5,6-dimethyltetrahydro-2H-pyran-2-yl)pyridin-3-yl)-6-phenylpyrazine-2-carboxamide]	280
C[C@@H]1O[C@H](c2ccncc2NC(=O)c2nc(-c3ccccc3)cnc2N)C[C@H](O)[C@@]1(C)O [Example 86, 3-amino-N-(4-((2S,4S,5R,6S)-4,5-dihydroxy-5,6-dimethyltetrahydro-2H-pyran-2-yl)pyridin-3-yl)-6-phenylpyrazine-2-carboxamide]	300
C[C@@H]1O[C@H](c2ccncc2NC(=O)c2nc(-c3ccccc3)cnc2N)[C@@H](F)[C@H](O)[C@@]1(C)O [Example 63, 3-amino-N-(4-((2R,3S,4R,5R,6S)-3-fluoro-4,5-dihydroxy-5,6-dimethyltetrahydro-2H-pyran-2-yl)pyridin-3-yl)-6-phenylpyrazine-2-carboxamide]	220
C[C@H]1O[C@@H](c2ccncc2NC(=O)c2nc(-c3ccccc3)ncc2N)C[C@@H](O)[C@]1(C)O [Example 32, 5-amino-N-(4-((2R,4R,5S,6R)-4,5-dihydroxy-5,6-dimethyltetrahydro-2H-pyran-2-yl)pyridin-3-yl)-2-phenylpyrimidine-4-carboxamide]	> 10000
CC[C@H]1O[C@@H](c2ccncc2NC(=O)c2nc(-c3ccccc3)ncc2N)C[C@@H](O)[C@@H]1O [Example 39, 5-amino-N-(4-((2R,4R,5S,6R)-6-ethyl-4,5-dihydroxytetrahydro-2H-pyran-2-yl)pyridin-3-yl)-2-phenylpyrimidine-4-carboxamide]	> 10000

Next, values leading:

IC50 [nM]	SMILES
16	C[C@H]1O[C@@H](c2ccncc2NC(=O)c2nc(-c3ccccc3)cnc2N)C[C@@H](O)[C@]1(C)O [Example 84, 3-amino-N-(4-((2R,4R,5S,6R)-4,5-dihydroxy-5,6-dimethyltetrahydro-2H-pyran-2-yl)pyridin-3-yl)-6-phenylpyrazine-2-carboxamide]
1	Nc1ncc(-c2ccccc2)nc1C(=O)Nc1cnccc1[C@H]1C[C@@H](O)[C@H](O)[C@@H](CCl)O1 [Example 36, 3-amino-N-(4-((2R,4R,5S,6S)-6-(chloromethyl)-4,5-dihydroxytetrahydro-2H-pyran-2-yl)pyridin-3-yl)-6-phenylpyrazine-2-carboxamide]
10	C=C1[C@@H](O)C[C@@H](c2ccncc2NC(=O)c2nc(-c3ccccc3)cnc2N)OC12CC2 [Example 5, 3-amino-N-(4-((5S,7S)-7-hydroxy-8-methylene-4-oxaspiro[2.5]octan-5-yl)pyridin-3-yl)-6-phenylpyrazine-2-carboxamide]

Same assay, conditions: TR-FRET assay

IC50 [nM]	SMILES
180	CC(C)(C)[C@H]1O[C@@H](c2ccncc2NC(=O)c2nc(-c3ccccc3)cnc2N)C[C@H](N)[C@@H]1O [Example 286, 3-amino-N-(4-((2R,4S,5S,6R)-4-amino-6-tert-butyl-5-hydroxytetrahydro-2H-pyran-2-yl)pyridin-3-yl)-6-phenylpyrazine-2-carboxamide]
